This passage reports IC50 results from patent US20060025414A1, “Poly-heterocyclic compounds and their use as metabotropic glutamate receptor antagonists” (AstraZeneca AB, priority 2004, published 2006).

The experiment has as its target T1, human mGluR5d (Homo sapiens, UniProt P41594).
T1 construct: expressed in transfected cells
Nature of the experiment: FLIPR assay of [Ca2+]i mobilization (Group I receptor antagonist activity). The experiment is classed as cell-based. Particulars: cells expressing human mGluR5d; antagonist block of agonist challenge. The method, then: For FLIPR analysis, cells expressing human mGluR5d as described in WO97/05252 were seeded on collagen coated clear bottom 96-well plates with black sides and analysis of [Ca^2+]i mobilization was done 24 h after seeding.
FLIPR experiments were done using a laser setting of 0.800 W and a 0.4 second CCD camera shutter speed. Each FLIPR experiment was initiated with 160 μl of buffer present in each well of the cell plate. After each addition of the compound, the fluorescence signal was sampled 50 times at 1 second intervals followed by 3 samples at 5 second intervals. Responses were measured as the peak height of the response within the sample period. EC50 and IC50 determinations were made from data obtained from 8-point concentration response curves (CRC) performed in duplicate. Agonist CRC were generated by scaling all responses to the maximal response observed for the plate. […]
FLIPR experiments were done using a laser setting of 0.800 W and a 0.4 second CCD camera shutter speed with excitation and emission wavelengths of 488 nm and 562 nm, respectively. […] After each addition the fluorescence signal was sampled 50 times at 1 second intervals followed by 3 samples at 5 second intervals. Responses were measured as the peak height of the response within the sample period. […]

T1 sequence (P41594 21-942 isoform P41594-3 limits assumed): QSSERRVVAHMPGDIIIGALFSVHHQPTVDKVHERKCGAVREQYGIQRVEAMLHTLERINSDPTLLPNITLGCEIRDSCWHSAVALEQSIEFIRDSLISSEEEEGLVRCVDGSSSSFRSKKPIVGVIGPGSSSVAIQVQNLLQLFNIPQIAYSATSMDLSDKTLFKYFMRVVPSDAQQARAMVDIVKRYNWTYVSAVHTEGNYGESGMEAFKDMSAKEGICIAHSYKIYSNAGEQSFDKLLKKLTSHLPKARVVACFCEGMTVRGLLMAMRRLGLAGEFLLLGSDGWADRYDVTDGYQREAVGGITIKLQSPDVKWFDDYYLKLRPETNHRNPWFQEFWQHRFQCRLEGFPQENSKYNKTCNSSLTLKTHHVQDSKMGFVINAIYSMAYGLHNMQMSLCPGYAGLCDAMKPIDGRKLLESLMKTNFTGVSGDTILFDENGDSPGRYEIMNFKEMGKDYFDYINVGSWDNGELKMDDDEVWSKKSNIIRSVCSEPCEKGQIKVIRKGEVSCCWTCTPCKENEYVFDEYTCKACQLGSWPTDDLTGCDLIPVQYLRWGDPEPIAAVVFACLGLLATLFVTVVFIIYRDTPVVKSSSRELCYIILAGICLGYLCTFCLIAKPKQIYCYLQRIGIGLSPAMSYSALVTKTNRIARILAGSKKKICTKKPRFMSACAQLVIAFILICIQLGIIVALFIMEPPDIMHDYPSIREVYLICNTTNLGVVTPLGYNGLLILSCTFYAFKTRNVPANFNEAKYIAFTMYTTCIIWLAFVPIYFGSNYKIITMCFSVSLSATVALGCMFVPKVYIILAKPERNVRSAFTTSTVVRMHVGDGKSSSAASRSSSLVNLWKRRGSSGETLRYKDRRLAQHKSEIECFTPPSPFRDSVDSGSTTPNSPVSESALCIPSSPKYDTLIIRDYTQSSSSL

As for `Cn1c(-c2ccc(OC(F)F)cc2)nnc1N1CCOCC1c1nc(-c2cccc(Cl)c2)no1` (centres unmarked) [3-[3-(3-Chloro-phenyl)-[1,2,4]oxadiazol-5-yl]-4-[5-(4-difluoromethoxy-phenyl)-4-methyl-4H-[1,2,4]triazol-3-yl]-morpholine], the IC50 came out at 199 nM.
The figure for `Cn1c(-c2ccncc2)nnc1N1CCCCC1c1nnn(-c2cccc(Cl)c2)n1` (centres unmarked) [4-(5-{2-[2-(3-chlorophenyl)-2H-tetrazol-5-yl]piperidin-1-yl}-4-methyl-4H-1,2,4-triazol-3-yl)pyridine] is 40 nM.
